Reference: paper PMC7244133, “Identification of potential dual -targets anti- toxoplasma gondii compounds through structure-based virtual screening and in-vitro studies” (PLoS ONE, 2020)
In brackets after ≈: the same amount, converted by molar mass. Several values for one entry are separate records, joined by “and”; a condition that tells them apart may be missing. Equal entries are not always repeated. Where two headings read alike, the source gives them in different places.

How the values were obtained:
[1] = tested on: T. gondii tachyzoites RH strain; assay: Treatment of T. gondii-infected Vero cells (MTS-PMS assay); assay type: cell-based, Toxoplasma gondii; conditions: for EC50: Toxoplasma gondii, read-out: EC50 against T. gondii; for Selectivity Index (SI): Vero Cell (EC50)/T. gondii EC50
Protocol: Vero cells were harvested by trypsinization when it reached 80–90% confluence. A volume of 100 μl diluted Vero cells of (6 x 10^4 cells/ml) in GM was cultured in triplicate wells of a 96-well plate and incubated for 24 hours. Then, 100 μl of tachyzoites (3 x 10^5 /ml) in GM2 (comprising DMEM, 0.5% PS and 2% FBS) were added into the Vero cell-seeded wells. A volume of 100 ul the above medium was added to the negative control well and the plate was incubated for six hours. Subsequently, the wells were washed twice with WM to remove non-adherent parasites. A volume of 100 μl of GM2 was added and again incubated for 18 hours. […] The negative control well contained 100 μl Vero cells and PBS in control wells for NCI compounds.
The percent cell viability was proportional to the mortality of T. gondii. The graphs were plotted and analyses their statistical data using Prism 5.0 (GraphPad Software Inc., CA USA) (S2 Dataset and S4 Dataset). […] Selectivity refers to the mean of the EC50 value for Vero cells relative to the mean of the EC50 value of the T. gondii. A P value of less than 0.05 was considered statistically significant and all data points represent the mean of three independent experiments. SI (selectivity index) measures the strength of inhibition against the Vero cells and the T. gondii.
SelectivityIndex(SI)=VeroCell(EC50)/T.gondiiEC50

[2] = tested on: Vero cells; assay: Cytotoxicity effect on Vero cells (MTS-PMS assay); assay type: cell-based, African green monkey; conditions: Chlorocebus sabaeus, read-out: EC50 against Vero cells
Protocol: Vero cells were harvested by trypsinization when it reached 80–90% confluence. A volume of 100 μl Vero cells (6 x 10^4 cells/ml) in GM was cultured in triplicate wells of a 96-well plate and incubated for 24 hours.
MTS solution was prepared (2 mg/ml) by dissolving the powder in PBS. Exposure to light was avoided during the preparation. PMS (0.92 mg/ml) was similarly prepared in PBS and both solutions were stored at -20 °C. A volume of 20 μl of MTS solution was added into each well and the cells were incubated for one hour in a CO2 incubator [23, 24]. The absorbance (abs) was then measured at 490 nm using a microplate reader (Thermo Scientific Multiskan®Spectrum, USA). The percentage of cell viability was calculated using the following formula [25, 26]. The graphs were plotted and analyses their statistical data using Prism 5.0 (GraphPad Software Inc., CA USA) (S1 Dataset and S3 Dataset).
%ofcellviability=Opticaldensity(OD)oftreatedcell/Opticaldensity(OD)ofuntreatedcell(cellonly)

[3] = T. gondii-infected Vero cells, 24 hours treatment, MTS-PMS, molar value in brackets
[4] = T. gondii-infected Vero cells, 24 hours treatment, MTS-PMS

Structure (SMILES) | EC50 [1, 3] | EC50 [1, 4] | Selectivity Index (SI) [1] | EC50 ([2]; 24 hours treatment, MTS-PMS) | EC50 ([1]; Vero, 24 h) | EC50 ([2]; 24 h) | EC50 against T. gondii [1, 4]
NS(=O)(=O)c1ccc(Cl)cc1[N+](=O)[O-] [NSC81213, 4-chloro-2-nitrobenzene-1-sulfonamide] | 20 µM | 4.75 µg/mL | 5.2 | 24.6 µg/mL (≈ 104 µM) | – | – | –
C1CC2CCNC3CCNC(C1)N23 (stereo not shown) [NSC81462, dodecahydro-1,4,9b-triazaphenalene] | – | – | 12.0 | – | 3.24 µg/mL and 17.8 µM | 39 µg/mL (≈ 215 µM) | –
COc1ccccc1N1C(=O)CC(Sc2cccc(N)c2)C1=O (stereo not shown) [NSC153391, 3-[(3-aminophenyl)sulfanyl]-1-(2-methoxyphenyl)pyrrolidine-2,5-dione] | – | – | – | 24.7 µg/mL (≈ 75.3 µM) | – | – | Inactive
NCCN1CCNCC1 [NSC38968, 2-(piperazin-1-yl)ethan-1-amine] | 37 µM | 4.82 µg/mL | 4.5 | 21.5 µg/mL (≈ 166 µM) | – | – | –
CC1=C(C(N)=O)S(=O)(=O)c2ccccc21 [NSC108972, 3-methyl-1,1-dioxo-1 H -1-benzothiophene-2-carboxamide] | 32 µM | 7.17 µg/mL | 3.9 | 28 µg/mL (≈ 126 µM) | – | – | –
Nc1cc(Cl)ccc1N1C(=O)CCC1=O [NSC660301, 1-(2-amino-4-chlorophenyl)pyrrolidine-2,5-dione] | 15 µM | 3.43 µg/mL | 6.5 | 22.3 µg/mL (≈ 99.2 µM) | – | – | –
O=c1[nH]cc(F)c(=O)[nH]1 [5-Fluorouracil, 5-fluorouracil, reference compound] | – | – | – | 9.72 µg/mL (≈ 74.7 µM) | – | – | –
Nc1ccc(C(=O)c2cccs2)cn1 [NSC343344, (6-aminopyridin-3-yl)(thiophen-2-yl)methanone] | – | – | – | – | – | 29.6 µg/mL (≈ 145 µM) | Inactive
CCOC1CCc2c(C)nc(N)nc2S1 (stereo not shown) [NSC77468, 7-ethoxy-4-methyl-6,7-dihydro-5H-thiopyrano[2,3-d]pyrimidin-2-amine] | 8.5 µM | 1.92 µg/mL | 25 | 47.8 µg/mL (≈ 212 µM) | – | – | –
